Measurements as given in ChEMBL document CHEMBL3045996, “Use of classical and 3-D QSAR to examine the hydration state of juvenile hormone esterase inhibitors” (Bioorg Med Chem, 2003).

Test: Inhibition of juvenile hormone esterase

Row | SMILES | pIC50
1 | CCCCCC/C=C/C(=O)C(F)(F)F | 5.14
2 | CCCCCCCCC(=O)C(F)(F)F | 5.17
3 | O=C(CSCc1ccc(Cl)cc1)C(F)(F)F | 5.34
4 | Cc1ccccc1CSCC(=O)C(F)(F)F | 4.9
5 | Cc1cccc(CSCC(=O)C(F)(F)F)c1 | 5.1
6 | Cc1ccc(CSCC(=O)C(F)(F)F)cc1 | 5.2
7 | CCCCCCCCCCCCc1ccc(CSCC(=O)C(F)(F)F)cc1 | 5.8
8 | O=C(CSCCCc1ccccc1)C(F)(F)F | 6.77
9 | O=C(C[S+]([O-])c1ccccc1)C(F)(F)F (configuration not stated) | 4.21
10 | CC(C)(C)c1ccc([S+]([O-])CC(=O)C(F)(F)F)cc1 (configuration not stated) | 7.64
11 | O=C(CS(=O)(=O)c1ccccc1)C(F)(F)F | 3.98
12 | O=C(CS(=O)(=O)CCc1ccccc1)C(F)(F)F | 6.31
13 | CCCCCCCCSC(C)C(=O)C(F)(F)F (configuration not stated) | 9.06
14 | CCCCCCCCSC(CC)C(=O)C(F)(F)F (configuration not stated) | 5.32
15 | CCCCCCCCSC(CCC)C(=O)C(F)(F)F (configuration not stated) | 4.09
16 | CCCCCCCCSC(C(=O)C(F)(F)F)c1ccccc1 (configuration not stated) | 4.09
17 | CCCCCCCC(C)SC(C)C(=O)C(F)(F)F (configuration not stated) | 8.07
18 | COc1cccc(SCC(=O)C(F)(F)F)c1 | 5.89
19 | O=C(CSc1ccc(F)cc1)C(F)(F)F | 5.08
20 | O=C(CSc1ccc(Cl)cc1)C(F)(F)F | 5.89
21 | O=C(CSc1ccc(Br)cc1)C(F)(F)F | 6.39
22 | Cc1ccc(SCC(=O)C(F)(F)F)cc1 | 6.96

Row | SMILES | pIC50
23 | CC(C)(C)c1ccc(SCC(=O)C(F)(F)F)cc1 | 8.12
24 | O=C(CSc1ccc(O)cc1)C(F)(F)F | 5.21
25 | COc1ccc(SCC(=O)C(F)(F)F)cc1 | 5.89
26 | CN(C)c1ccc(SCC(=O)C(F)(F)F)cc1 | 7.05
27 | O=C(CSc1cc(Cl)ccc1Cl)C(F)(F)F | 7.64
28 | O=C(CSc1c(Cl)cccc1Cl)C(F)(F)F | 7.11
29 | O=C(CSc1ccc(Cl)c(Cl)c1)C(F)(F)F | 7.7
30 | Cc1ccc(SCC(=O)C(F)(F)F)c(C)c1 | 6.04
31 | Cc1ccc(C)c(SCC(=O)C(F)(F)F)c1 | 6.77
32 | Cc1cccc(C)c1SCC(=O)C(F)(F)F | 6.92
33 | Cc1ccc(SCC(=O)C(F)(F)F)cc1C | 7.96
34 | Cc1cc(C)cc(SCC(=O)C(F)(F)F)c1 | 5.74
35 | Cc1cc(C(C)(C)C)ccc1SCC(=O)C(F)(F)F | 8.52
36 | Cc1cc(SCC(=O)C(F)(F)F)ccc1Br | 7.89
37 | O=C(CSc1cc(Cl)c(Cl)cc1Cl)C(F)(F)F | 7.49
38 | O=C(CSc1c(F)c(F)cc(F)c1F)C(F)(F)F | 5.92
39 | O=C(CSc1c(Cl)c(Cl)c(Cl)c(Cl)c1Cl)C(F)(F)F | 7.8
40 | O=C(CSc1c(F)c(F)c(F)c(F)c1F)C(F)(F)F | 4.96
41 | O=C(CSCc1ccccc1)C(F)(F)F | 4.82
42 | O=C(CSCc1ccccc1Cl)C(F)(F)F | 5.18
43 | O=C(CSC1CCCCC1)C(F)(F)F | 5.28
44 | CC(C)=CCCC(C)CCSCC(=O)C(F)(F)F (configuration not stated) | 8.35

Row | SMILES | pIC50
45 | COC(C)(C)CCCC(C)CCSCC(=O)C(F)(F)F (configuration not stated) | 8.12
46 | CC(C)=CCC/C(C)=C\CCSCC(=O)C(F)(F)F | 8.51
47 | COC(C)(C)CCC/C(C)=C\CCSCC(=O)C(F)(F)F | 8.49
48 | O=C(CSc1ccccc1)C(F)(F)F | 5.06
49 | O=C(CSc1ccccc1Cl)C(F)(F)F | 5.68
50 | O=C(CSc1ccccc1Br)C(F)(F)F | 6.17
51 | Cc1ccccc1SCC(=O)C(F)(F)F | 5.37
52 | CCc1ccccc1SCC(=O)C(F)(F)F | 5.54
53 | CC(C)c1ccccc1SCC(=O)C(F)(F)F | 6.47
54 | COc1ccccc1SCC(=O)C(F)(F)F | 5.7
55 | O=C(CSc1ccccc1CO)C(F)(F)F | 5.15
56 | O=C(CSc1ccccc1Oc1ccccc1)C(F)(F)F | 6.66
57 | O=C(CSc1ccccc1Nc1ccccc1)C(F)(F)F | 7.52
58 | O=C(CSc1cccc(Cl)c1)C(F)(F)F | 6.4
59 | O=C(CSc1cccc(Br)c1)C(F)(F)F | 6.06
60 | O=C(CSc1cccc(C(F)(F)F)c1)C(F)(F)F | 5.6
61 | Cc1cccc(SCC(=O)C(F)(F)F)c1 | 6.89
62 | COc1ccc(C(=O)C(F)(F)F)cc1 | 4.15
63 | CC(C/C=C\c1ccc(C(=O)C(F)(F)F)cc1)CCC1OC1(C)C (configuration not stated) | 6.52
64 | CC(C)=CCCC(C)C/C=C\c1ccc(C(=O)C(F)(F)F)cc1 (configuration not stated) | 6.7
65 | CC(CCC1OC1(C)C)CC1OC1c1ccc(C(=O)C(F)(F)F)cc1 (configuration not stated) | 3.3
66 | CCCCCC/C=C\C(=O)C(F)(F)F | 4.1

Row | SMILES | pIC50
67 | CCCCCCCC/C=C/C(=O)C(F)(F)F | 6.06
68 | CCCCC#CC(=O)C(F)(F)F | 5.49
69 | CCCCCCCCC#CC(=O)C(F)(F)F | 7.24
70 | CCCCCCCCCCC#CC(=O)C(F)(F)F | 7.57
71 | CCCCCCCCCCCCC#CC(=O)C(F)(F)F | 8
72 | O=C(C#Cc1ccccc1)C(F)(F)F | 5.27
73 | CCCCCSCC(=O)C(F)(F)F | 6.11
74 | CC(C)(C)SCC(=O)C(F)(F)F | 5.3
75 | CCC(C)CSCC(=O)C(F)(F)F (configuration not stated) | 5.8
76 | CC(C)CCSCC(=O)C(F)(F)F | 5.6
77 | CCCCCCCSCC(=O)C(F)(F)F | 8.09
78 | CCCCC(C)(C)CC(C)CSCC(=O)C(F)(F)F (configuration not stated) | 7.98
79 | CCCCCCCCCSCC(=O)C(F)(F)F | 8.43
80 | CCCCCCCC(C)SCC(=O)C(F)(F)F (configuration not stated) | 9.77
81 | CCCCCCCC(CC)SCC(=O)C(F)(F)F (configuration not stated) | 8.24
82 | CCCCCCCCCCCSCC(=O)C(F)(F)F | 7.37
83 | CCCCCCCC(CCC)SCC(=O)C(F)(F)F (configuration not stated) | 7.89
84 | CCCCCCCC(CCCC)SCC(=O)C(F)(F)F (configuration not stated) | 7.16
85 | CCCCCCCCCCCCCSCC(=O)C(F)(F)F | 7.35
86 | CCCCCCCCCCCCCCSCC(=O)C(F)(F)F | 6.4
87 | CCCCCCCCCCCCCCCCSCC(=O)C(F)(F)F | 6.2
88 | CCCCCCCCCCCCCCCCCCSCC(=O)C(F)(F)F | 6.3

Row | SMILES | pIC50
89 | O=C(CSC1CCCC1)C(F)(F)F | 5.01
90 | CCCCCCCCCCCCS(=O)(=O)CC(=O)C(F)(F)F | 7.21
91 | CCCCCCCC[S+]([O-])CC(=O)C(F)(F)F (configuration not stated) | 7.37
92 | CCCCCCCCCCSCC(=O)C(F)(F)F | 7.7
93 | CCCCCCCCCCCCSCC(=O)C(F)(F)F | 7.82
94 | CCCCCCCCCCS(=O)(=O)CC(=O)C(F)(F)F | 7.36
95 | CCCCCCCCS(=O)(=O)CC(=O)C(F)(F)F | 6.9
96 | O=C(c1ccccc1)C(F)(F)F | 3.04
97 | CCCCCCC#CC(=O)C(F)(F)F | 6.4
98 | CCCCSCC(=O)C(F)(F)F | 5.82
99 | O=C(CSCCc1ccccc1)C(F)(F)F | 5.49
100 | CCCCCCCCCCC(=O)C(F)(F)F | 6.66
101 | CCCCCCCCCCCCCCC(=O)C(F)(F)F | 5.14
102 | CCCCCCCCSCC(=O)C(F)(F)F | 8.62
103 | CCCCCCCCCCCCCC(=O)C(F)(F)F | 5.41
104 | CCCCCCCCCCCCC(=O)C(F)(F)F | 7
105 | CCCCCCCCCCCCCCCCCC(=O)C(F)(F)F | 4.85
106 | CCCCCCC(=O)C(F)(F)F | 3.66
107 | CCCCCCCC(=O)C(F)(F)F | 4.17
